Measurements: US7138361B2, “Herbicidal heterocycles” (E. I. du Pont de Nemours and Company, priority 2000, dated 2006)

Columns and labels:
Format in all cases: in vivo
Nightshade [1] = test: Test C preemergence; details: Rate 500 g/ha, visual evaluation after 12 to 14 days
[2] = test system: barnyardgrass (Echinochloa crus-galli); test: Test B preemergence
Summary of the method: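 Greenhouse test: chemicals are formulated in a surfactant-containing non-phytotoxic solvent and applied either preemergence to planted seeds or postemergence to plants 2 to 18 cm tall. Response is rated visually versus controls after 13 to 15 days, 0 meaning no effect and 100 complete control.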

Sunflower = test: Test C preemergence; details: Rate 500 g/ha, visual evaluation after 12 to 14 days
[3] = test system: crabgrass (Digitaria sanguinalis); test: Test C preemergence; details: for Plant response rating (0 to 100), Crabgrass: Rate 500 g/ha, visual evaluation after 12 to 14 days
Summary of the method: (§1)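 Pre- and postemergence treatments used a non-phytotoxic solvent/surfactant formulation; post-treated plants measured 2 to 18 cm. Greenhouse hold 12–14 d; % control estimated visually relative to controls.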

[4] = test system: morningglory (Ipomoea hederacea); test: Test C preemergence; details: for Plant response rating (0 to 100), Morningglory: Rate 500 g/ha, visual evaluation after 12 to 14 days
Summary of the method: as §1

[5] = test system: woolly cupgrass (Eriochloa villosa); test: Test C preemergence; details: for Plant response rating (0 to 100), Cupgrass, Woolly: Rate 500 g/ha, visual evaluation after 12 to 14 days
Summary of the method: as §1

[6] = test system: pigweed (Amaranthus retroflexus); test: Test C preemergence; details: for Plant response rating (0 to 100), Pigweed: Rate 500 g/ha, visual evaluation after 12 to 14 days
Summary of the method: as §1

corn (Zea mays) = test: Test C preemergence; details: for Plant response rating (0 to 100), Corn: Rate 500 g/ha, visual evaluation after 12 to 14 days
Summary of the method: as §1

[7] = test system: bermudagrass (Cynodon dactylon); test: Test C preemergence; details: for Plant response rating (0 to 100 where 0 is no effect and 100 is complete control), Bermudagrass: Rate 500 g/ha, visual evaluation after 12 to 14 days
Summary of the method: as §1

[8] = test system: johnsongrass (Sorghum halepense); test: Test C preemergence; details: for Plant response rating (0 to 100), Johnsongrass: Rate 500 g/ha, visual evaluation after 12 to 14 days
Summary of the method: as §1

[9] = test system: cocklebur (Xanthium strumarium); test: Test C preemergence
Summary of the method: as §1

[10] = test system: velvetleaf (Abutilon theophrasti); test: Test C preemergence; details: for Plant response rating (0 to 100), Velvetleaf: Rate 500 g/ha, visual evaluation after 12 to 14 days
Summary of the method: as §1

[11] = test system: goosegrass (Eleusine indica); test: Test C preemergence; details: for Plant response rating (0 to 100), Goosegrass: Rate 500 g/ha, visual evaluation after 12 to 14 days
Summary of the method: as §1

Nightshade [12] = test: Test C preemergence
soybean (Glycine max) = test: Test C preemergence; details: for Plant response rating (0 to 100), Soybean: Rate 500 g/ha, visual evaluation after 12 to 14 days
Summary of the method: as §1

kochia (Kochia scoparia) = test: Test C preemergence; details: for Plant response rating (0 to 100), Kochia: Rate 500 g/ha, visual evaluation after 12 to 14 days
Summary of the method: as §1

[13] = test system: giant foxtail (Setaria faberii); test: Test C preemergence; details: for Plant response rating (0 to 100), Foxtail, Giant: Rate 500 g/ha, visual evaluation after 12 to 14 days
Summary of the method: as §1

[14] = test system: lambsquarters (Chenopodium album); test: Test C preemergence; details: for Plant response rating (0 to 100), Lambsquarters: Rate 500 g/ha, visual evaluation after 12 to 14 days
Summary of the method: as §1

[15] = test system: yellow nutsedge (Cyperus esculentus); test: Test C preemergence; details: for Plant response rating (0 to 100), Nutsedge: Rate 500 g/ha, visual evaluation after 12 to 14 days
Summary of the method: as §1

[16] = Preemergence, Rate 500 g/ha, scale 0 to 100, 0 no effect, 100 complete control
[17] = preemergence, Rate 125 g/ha, scale of 0 to 100 where 0 is no effect and 100 is complete control, 13 to 15 days
[18] = Rate 125 g/ha, scale 0 to 100, 0 no effect, 100 complete control
[19] = preemergence, Rate 62 g/ha, scale 0 to 100
[20] = preemergence, Rate 250 g/ha, scale 0 to 100, 0 no effect, 100 complete control
[21] = Rate 250 g/ha, scale 0 to 100, 0 no effect, 100 complete control

SMILES: COc1cc(N2CCC(n3ccc(C(C)C)n3)C2=O)ccc1Br (centres unmarked) [Compound 140]
- Plant response rating (0 to 100), Nightshade (Nightshade [1]): 100
- Plant response rating, Barnyardgrass [2, 16]: 100
- Plant response rating, Barnyardgrass [2, 17]: 100
- Plant response rating (0 to 100), Sunflower (Sunflower): 90
- Plant response rating, Crabgrass [3, 18]: 100
- Plant response rating, Crabgrass [3, 19]: 100
- Plant response rating (0 to 100), Crabgrass ([3]; preemergence): 100
- Plant response rating, Crabgrass [3, 20]: 100
- Plant response rating, Morningglory [4, 18]: 90
- Plant response rating, Morningglory [4, 19]: 70
- Plant response rating (0 to 100), Morningglory ([4]; preemergence): 100
- Plant response rating, Morningglory [4, 20]: 100
- Plant response rating, Cupgrass, Woolly [5, 18]: 100
- Plant response rating, Cupgrass, Woolly [5, 19]: 100
- Plant response rating (0 to 100), Cupgrass, Woolly ([5]; preemergence): 100
- Plant response rating, Cupgrass, Woolly [5, 20]: 100
- Plant response rating, Pigweed [6, 18]: 100
- Plant response rating, Pigweed [6, 19]: 100
- Plant response rating (0 to 100), Pigweed ([6]; preemergence): 100
- Plant response rating, Pigweed [6, 20]: 100
- Plant response rating, Corn (corn (Zea mays); [18]): 20
- Plant response rating, Corn (corn (Zea mays); [19]): 20
- Plant response rating (0 to 100), Corn (corn (Zea mays); preemergence): 30
- Plant response rating, Corn (corn (Zea mays); [20]): 30
- Plant response rating, Bermudagrass [7, 18]: 100
- Plant response rating, Bermudagrass [7, 19]: 100
- Plant response rating (0 to 100 where 0 is no effect and 100 is complete control), Bermudagrass ([7]; preemergence): 100
- Plant response rating, Bermudagrass [7, 20]: 100
- Plant response rating, Johnsongrass [8, 18]: 20
- Plant response rating, Johnsongrass [8, 19]: 0
- Plant response rating (0 to 100), Johnsongrass ([8]; preemergence): 100
- Plant response rating, Johnsongrass [8, 20]: 100
- Plant response rating, Cocklebur [9, 18]: 30
- Plant response rating, Cocklebur [9, 19]: 30
- Plant response rating, Cocklebur [9, 20]: 90
- Plant response rating, Velvetleaf [10, 18]: 70
- Plant response rating, Velvetleaf [10, 19]: 60
- Plant response rating (0 to 100), Velvetleaf ([10]; preemergence): 90
- Plant response rating, Velvetleaf [10, 20]: 90
- Plant response rating, Goosegrass [11, 18]: 100
- Plant response rating, Goosegrass [11, 19]: 100
- Plant response rating (0 to 100), Goosegrass ([11]; preemergence): 100
- Plant response rating, Goosegrass [11, 20]: 100
- Plant response rating, Nightshade (Nightshade [12]; Rate 62 g/ha, scale 0 to 100): 100
- Plant response rating, Nightshade (Nightshade [12]; [18]): 100
- Plant response rating, Nightshade (Nightshade [12]; [21]): 100
- Plant response rating, Soybean (soybean (Glycine max); [18]): 80
- Plant response rating, Soybean (soybean (Glycine max); [19]): 50
- Plant response rating (0 to 100), Soybean (soybean (Glycine max); preemergence): 100
- Plant response rating, Soybean (soybean (Glycine max); [20]): 100
- Plant response rating, Kochia (kochia (Kochia scoparia); [18]): 100
- Plant response rating, Kochia (kochia (Kochia scoparia); [19]): 100
- Plant response rating (0 to 100), Kochia (kochia (Kochia scoparia); preemergence): 100
- Plant response rating, Kochia (kochia (Kochia scoparia); [20]): 100
- Plant response rating, Foxtail, Giant [13, 18]: 100
- Plant response rating, Foxtail, Giant [13, 19]: 100
- Plant response rating (0 to 100), Foxtail, Giant ([13]; preemergence): 100
- Plant response rating, Foxtail, Giant [13, 20]: 100
- Plant response rating, Lambsquarters [14, 18]: 100
- Plant response rating, Lambsquarters [14, 19]: 100
- Plant response rating (0 to 100), Lambsquarters ([14]; preemergence): 100
- Plant response rating, Lambsquarters [14, 20]: 100
- Plant response rating, Nutsedge [15, 18]: 40
- Plant response rating, Nutsedge [15, 19]: 20
- Plant response rating (0 to 100), Nutsedge ([15]; preemergence): 70
- Plant response rating, Nutsedge [15, 20]: 60

SMILES: CCCC(C)c1ccn(C2OCN(c3cccc(OC(F)F)c3)C2=O)n1 (centres unmarked) [Compound 132]
- Plant response rating (0 to 100), Nightshade (Nightshade [1]): 20
- Plant response rating, Barnyardgrass [2, 16]: 100
- Plant response rating, Barnyardgrass [2, 17]: 100
- Plant response rating, Crabgrass [3, 18]: 100
- Plant response rating, Crabgrass [3, 19]: 100
- Plant response rating (0 to 100), Crabgrass ([3]; preemergence): 100
- Plant response rating, Crabgrass [3, 20]: 100
- Plant response rating, Morningglory [4, 19]: 0
- Plant response rating (0 to 100), Morningglory ([4]; preemergence): 0
- Plant response rating, Morningglory [4, 20]: 0
- Plant response rating, Cupgrass, Woolly [5, 18]: 100
- Plant response rating, Cupgrass, Woolly [5, 19]: 90
- Plant response rating (0 to 100), Cupgrass, Woolly ([5]; preemergence): 100
- Plant response rating, Cupgrass, Woolly [5, 20]: 100
- Plant response rating, Pigweed [6, 18]: 30
- Plant response rating, Pigweed [6, 19]: 0
- Plant response rating (0 to 100), Pigweed ([6]; preemergence): 100
- Plant response rating, Pigweed [6, 20]: 70
- Plant response rating, Corn (corn (Zea mays); [18]): 10
- Plant response rating, Corn (corn (Zea mays); [19]): 0
- Plant response rating (0 to 100), Corn (corn (Zea mays); preemergence): 90
- Plant response rating, Corn (corn (Zea mays); [20]): 70
- Plant response rating, Bermudagrass [7, 18]: 100
- Plant response rating, Bermudagrass [7, 19]: 100
- Plant response rating (0 to 100 where 0 is no effect and 100 is complete control), Bermudagrass ([7]; preemergence): 100
- Plant response rating, Bermudagrass [7, 20]: 100
- Plant response rating, Johnsongrass [8, 18]: 80
- Plant response rating, Johnsongrass [8, 19]: 50
- Plant response rating (0 to 100), Johnsongrass ([8]; preemergence): 100
- Plant response rating, Johnsongrass [8, 20]: 100
- Plant response rating, Cocklebur [9, 18]: 0
- Plant response rating (0 to 100), Cocklebur ([9]; preemergence, Rate 500 g/ha, visual evaluation after 12 to 14 days): 0
- Plant response rating, Cocklebur [9, 20]: 0
- Plant response rating, Velvetleaf [10, 19]: 0
- Plant response rating (0 to 100), Velvetleaf ([10]; preemergence): 0
- Plant response rating, Velvetleaf [10, 20]: 0
- Plant response rating, Goosegrass [11, 18]: 100
- Plant response rating, Goosegrass [11, 19]: 100
- Plant response rating (0 to 100), Goosegrass ([11]; preemergence): 100
- Plant response rating, Goosegrass [11, 20]: 100
- Plant response rating, Nightshade (Nightshade [12]; Rate 62 g/ha, scale 0 to 100): 0
- Plant response rating, Nightshade (Nightshade [12]; [18]): 0
- Plant response rating, Nightshade (Nightshade [12]; [21]): 20
- Plant response rating, Soybean (soybean (Glycine max); [18]): 20
- Plant response rating, Soybean (soybean (Glycine max); [19]): 20
- Plant response rating (0 to 100), Soybean (soybean (Glycine max); preemergence): 30
- Plant response rating, Soybean (soybean (Glycine max); [20]): 20
- Plant response rating, Kochia (kochia (Kochia scoparia); [18]): 100
- Plant response rating (0 to 100), Kochia (kochia (Kochia scoparia); preemergence): 100
- Plant response rating, Kochia (kochia (Kochia scoparia); [20]): 100
- Plant response rating, Foxtail, Giant [13, 18]: 70
- Plant response rating, Foxtail, Giant [13, 19]: 70
- Plant response rating (0 to 100), Foxtail, Giant ([13]; preemergence): 100
- Plant response rating, Foxtail, Giant [13, 20]: 100
- Plant response rating, Lambsquarters [14, 18]: 100
- Plant response rating, Lambsquarters [14, 19]: 100
- Plant response rating (0 to 100), Lambsquarters ([14]; preemergence): 100
- Plant response rating, Lambsquarters [14, 20]: 100
- Plant response rating, Nutsedge [15, 18]: 0
- Plant response rating, Nutsedge [15, 19]: 0
- Plant response rating (0 to 100), Nutsedge ([15]; preemergence): 90
- Plant response rating, Nutsedge [15, 20]: 0
